Results from PubChem BioAssay AID1195 (EPA DSSTox, 2008).

Test system: human maximum recommended daily dose, FDA database
Test: DSSTox (FDAMDD) FDA Maximum (Recommended) Daily Dose Database
Settings: hits give low values
From the text: The Food and Drug Administration (FDA) Center for Drug Evaluation and Research, Office of Pharmaceutical Science, Informatics and Computational Safety Analysis Staff's Maximum Recommended Daily Dose (FDAMDD) database contains values for over 1200 pharmaceuticals listed in Martindale: The Extra Pharmacopoeia (1973, 1983, and 1993) and The Physicians' Desk Reference (1995 and 1999). Some classes of chemicals were excluded from the FDAMDD database due to their unsuitability for most QSAR modeling programs. These were inorganic chemicals, high molecular weight polymers (>5000 Daltons), fibers, salts, mixtures of organic chemicals, and small molecules (<100 Daltons). FDAMDD is the non-proprietary portion of the database that was used in the QSAR analysis reported in the Main Citation. DSSTox FDAMDD has fewer substance records than the original MRDD Source database due to consolidation of partial structures (i.e., complexed entities) into a single record and elimination of duplicate entries. DSSTox FDAMDD also differs from the MRDD Source database in presenting complete structural information pertaining to the actual salt or complexed form corresponding to the listed ChemicalName and CASRN. According to the Source authors, there are a number of cases where multiple related forms or derivatives of a drug were listed as separate records but were assumed to fall under the same clinical toxicity assessment and, therefore, assigned the same Dose_MRDD_mg activity value. For the DSSTox FDAMDD, we have labeled these derivatives in the ChemClass_MRDD_grouping field and provide their counts in the ChemicalReplicateCount field to highlight their special nature.
Maximum recommended daily dose (or maximum recommended therapeutic dose) values were determined from pharmaceutical clinical trials that employed an oral route of exposure and daily treatments, usually for 3-12 months. Drugs were given as single or divided dose treatment regimens to achieve desired pharmacological effects. Roughly 5% of the pharmaceuticals in the FDAMDD data file were antineoplastics and anesthetics and were administered intravenously and/or intramuscularly. When separate MRDDs were reported for different routes of exposure, only the oral MRDD was included in the data file and only MRDD values reported for the average adult patient were used. Pharmaceuticals that are administered orally are usually tested over a limited range of doses and have MRDDs reported as mg/day. The mg/day unit was converted to mg/kg-body weight (bw)/day based upon an average adult weighing 60 kg. In contrast, the dose unit for most antineoplastic drug MRDDs is reported as mg/m2 which was converted to mg/kg-bw/day using the formula mg/kg-bw/day = mg/m2/37 for an average adult. Additionally, a few drugs had MRDDs reported in parts per million (ppm) which were converted to mg/kg-bw/day on the basis that 1000 ppm equals 25 mg/kg-bw/day for an average 60 kg adult. Activity Score is mapping of LOG10(1/Dose_MRDD_mmol) spanning activity range [MIN, MAX] onto Integer 1-100 Activity range, where 100 is highest potency and 1 is lowest potency: ActivityScore = 100 * INTEGER[(LOGINV_MRDD_mmol - MIN)/(MAX […] MIN)]. Activity Outcome is "active" for all substances, since Dose_MRDD_mmol is reported for all substances.

[1] = TherapeuticCategory: antibacterial
[2] = TherapeuticCategory: anxiolytic
[3] = TherapeuticCategory: anticonvulsant
[4] = TherapeuticCategory: antihypertensive
[5] = TherapeuticCategory: bronchodilator
[6] = TherapeuticCategory: antihistaminic
[7] = TherapeuticCategory: anti inflammatory
[8] = TherapeuticCategory: anthelmintic

OC(CCN1CCCC1)(c1ccccc1)C1CCCCC1 (centres undefined)
maximum recommended daily dose (mmol/kg-bw/day) (TherapeuticCategory: anticholinergic): 0.00116

CN1CCN(C2=Nc3ccccc3Sc3ccc(Cl)cc32)CC1
maximum recommended daily dose (mmol/kg-bw/day) (TherapeuticCategory: antipsychotic): 0.000727

COc1cc(NS(=O)(=O)c2ccc(N)cc2)c(OC)nn1
maximum recommended daily dose (mmol/kg-bw/day) [1]: 0.161

CCc1cc2c(s1)-n1c(C)nnc1CN=C2c1ccccc1Cl
maximum recommended daily dose (mmol/kg-bw/day) [2]: 0.000195

CCCCCCCCCCCCCCCCCC(=O)OCC(=O)OCC(=O)[C@@]1(O)CC[C@H]2[C@@H]3CCC4=CC(=O)C=C[C@]4(C)[C@H]3[C@@H](O)C[C@@]21C
maximum recommended daily dose (mmol/kg-bw/day) (TherapeuticCategory: glucocorticoid): 0.00486

CCC1(c2ccc(N)cc2)CCC(=O)NC1=O (centres undefined)
maximum recommended daily dose (mmol/kg-bw/day) [3]: 0.0719

NC(=O)OCC(COC(N)=O)c1ccccc1
maximum recommended daily dose (mmol/kg-bw/day) [3]: 0.252

CC(C)(C)NCC(O)COc1cccc2c1CCC(=O)N2 (centres undefined)
maximum recommended daily dose (mmol/kg-bw/day) (TherapeuticCategory: antihypertensive, antianginal, antiarrhythmic, antiglaucomic): 0.000571

c1ccc(CC2=NCCN2)cc1
maximum recommended daily dose (mmol/kg-bw/day) (TherapeuticCategory: antiadrenergic): 0.0125

CC(C)(N)Cc1ccccc1Cl
maximum recommended daily dose (mmol/kg-bw/day) (TherapeuticCategory: anorexic): 0.00454

Cc1c(-c2ccccc2)oc2c(C(=O)OCCN3CCCCC3)cccc2c1=O
maximum recommended daily dose (mmol/kg-bw/day) (TherapeuticCategory: antispasmodic): 0.034

CC(CCc1ccccc1)NCC(O)c1ccc(O)c(C(N)=O)c1 (centres undefined)
maximum recommended daily dose (mmol/kg-bw/day) [4]: 0.122

CCC(C)(C)C(=O)O[C@H]1C[C@@H](C)C=C2C=C[C@H](C)[C@H](CC[C@@H]3C[C@@H](O)CC(=O)O3)[C@H]21
maximum recommended daily dose (mmol/kg-bw/day) (TherapeuticCategory: antihyperlipoproteinemic): 0.00159

CN(C/C=C/C#CC(C)(C)C)Cc1cccc2ccccc12
maximum recommended daily dose (mmol/kg-bw/day) (TherapeuticCategory: topical antifungal): 0.0926

Cc1ccc(-c2cc(C(F)(F)F)nn2-c2ccc(S(N)(=O)=O)cc2)cc1
maximum recommended daily dose (mmol/kg-bw/day) (TherapeuticCategory: anti inflammatory, antiarthritic): 0.0175

C[C@H]1CCC[C@H](O)CCCCCc2cc(O)cc(O)c2C(=O)O1
maximum recommended daily dose (mmol/kg-bw/day) (TherapeuticCategory: anabolic): 1.55e-06

CO[C@H]1C[C@@H]2CC[C@@H](C)[C@@](O)(O2)C(=O)C(=O)N2CCCC[C@H]2C(=O)O[C@H]([C@H](C)C[C@@H]2CC[C@@H](O)[C@H](OC)C2)CC(=O)[C@H](C)/C=C(\C)[C@@H](O)[C@@H](OC)C(=O)[C@H](C)C[C@H](C)/C=C/C=C/C=C/1C
maximum recommended daily dose (mmol/kg-bw/day) (TherapeuticCategory: immunosuppressant): 0.000148

CCCOC(=O)c1ccc(O)cc1
maximum recommended daily dose (mmol/kg-bw/day) (TherapeuticCategory: pharmaceutic aid): 0.0555

CCC1C(C)=NN=C(c2ccc(OC)c(OC)c2)c2cc(OC)c(OC)cc21 (centres undefined)
maximum recommended daily dose (mmol/kg-bw/day) [2]: 0.00654

COc1ccc([C@@H]2Sc3ccccc3N(CCN(C)C)C(=O)[C@@H]2OC(C)=O)cc1
maximum recommended daily dose (mmol/kg-bw/day) (TherapeuticCategory: antianginal): 0.0193

CCC(=O)OCC(=O)[C@@]1(OC(=O)CC)[C@H](C)C[C@H]2[C@@H]3CCC4=CC(=O)C=C[C@]4(C)[C@@]3(F)[C@@H](O)C[C@@]21C
maximum recommended daily dose (mmol/kg-bw/day) (TherapeuticCategory: glucocorticoid, anti inflammatory): 0.000297

Cn1c(=O)c2c(ncn2CC2OCCO2)n(C)c1=O
maximum recommended daily dose (mmol/kg-bw/day) [5]: 0.05

c1ccc(CN(CC2=NCCN2)c2ccccc2)cc1
maximum recommended daily dose (mmol/kg-bw/day) [6]: 0.0188

Cn1c(=O)c2c(ncn2CCOC(=O)C(C)(C)Oc2ccc(Cl)cc2)n(C)c1=O
maximum recommended daily dose (mmol/kg-bw/day) [5]: 0.0297

C=CCC1(C(C)CCC)C(=O)N=C(O)NC1=O (centres undefined)
maximum recommended daily dose (mmol/kg-bw/day) (TherapeuticCategory: sedative, hypnotic): 0.0128

Cc1c(OCC(F)(F)F)ccnc1CS(=O)c1nc2ccccc2[nH]1 (centres undefined)
maximum recommended daily dose (mmol/kg-bw/day) (TherapeuticCategory: antiulcerative, anti infective): 0.00135

CC1C(c2ccccc2)OCCN1C (centres undefined)
maximum recommended daily dose (mmol/kg-bw/day) (TherapeuticCategory: anorexic): 0.0183

CC/C(=C(/CC)c1ccc(O)cc1)c1ccc(O)cc1
maximum recommended daily dose (mmol/kg-bw/day) (TherapeuticCategory: estrogen): 0.0373

CN1C(=O)CC(c2ccccc2)C1=O (centres undefined)
maximum recommended daily dose (mmol/kg-bw/day) [3]: 0.264

OCCN(CCO)c1nc(-c2ccccc2)c(-c2ccccc2)o1
maximum recommended daily dose (mmol/kg-bw/day) [7]: 0.0617

CCCCNc1ccc(C(=O)OCCOCCOCCOCCOCCOCCOCCOCCOCCOC)cc1
maximum recommended daily dose (mmol/kg-bw/day) (TherapeuticCategory: antitussive): 0.0166

CCN(CC)C(=O)N1CCN(C)CC1
maximum recommended daily dose (mmol/kg-bw/day) [8]: 0.0301

COc1cc(NCc2ccc3nc(N)nc(N)c3c2C)cc(OC)c1OC
maximum recommended daily dose (mmol/kg-bw/day) (TherapeuticCategory: antineoplastic): 0.0033

Cc1cn([C@H]2C[C@H](O)[C@@H](CO)O2)c(=O)[nH]c1=O
maximum recommended daily dose (mmol/kg-bw/day) (TherapeuticCategory: none): 0.413

CC(=O)[C@H]1CC[C@H]2[C@@H]3CC[C@H]4C[C@H](O)CC[C@]4(C)[C@H]3C(=O)C[C@]12C
maximum recommended daily dose (mmol/kg-bw/day) (TherapeuticCategory: anesthetic): 0.00203

C#C[C@]1(OC(C)=O)CC[C@H]2[C@@H]3CCC4=CC(=O)CC[C@@H]4[C@H]3CC[C@@]21C
maximum recommended daily dose (mmol/kg-bw/day) (TherapeuticCategory: progestogen): 4.91e-05

CC1=C(CC(=O)O)c2cc(F)ccc2/C1=C/c1ccc(S(C)=O)cc1 (centres undefined)
maximum recommended daily dose (mmol/kg-bw/day) [7]: 0.0187

CC1=C(/C=C/C(C)=C/C=C/C(C)=C/CO)C(C)(C)CCC1
maximum recommended daily dose (mmol/kg-bw/day) (TherapeuticCategory: antixerophthalmic vitamin): 0.0032

COCCOC(=O)C1=C(C)NC(C)=C(C(=O)OC(C)C)C1c1cccc([N+](=O)[O-])c1 (centres undefined)
maximum recommended daily dose (mmol/kg-bw/day) (TherapeuticCategory: cerebral vasodilator): 0.0143

NCCC(O)(P(=O)(O)O)P(=O)(O)O
maximum recommended daily dose (mmol/kg-bw/day) (TherapeuticCategory: antipagetic): 0.00638

COC(=O)Nc1nc2ccc(C(=O)c3ccc(F)cc3)cc2[nH]1
maximum recommended daily dose (mmol/kg-bw/day) [8]: 0.00533

COc1cc2c(cc1OC)C(Cc1cc(OC)c(OC)c(OC)c1)[N+](C)(CCCOC(=O)CC/C=C/CCC(=O)OCCC[N+]1(C)CCc3cc(OC)c(OC)cc3C1Cc1cc(OC)c(OC)c(OC)c1)CC2 (centres undefined)
maximum recommended daily dose (mmol/kg-bw/day) (TherapeuticCategory: skeletal muscle relaxant, neuromuscular blocker): 0.000227

COc1ccc2c(c1)c(CC(=O)OCC(=O)O)c(C)n2C(=O)c1ccc(Cl)cc1
maximum recommended daily dose (mmol/kg-bw/day) [7]: 0.00721

CCCNC(=O)NS(=O)(=O)c1ccc(Cl)cc1
maximum recommended daily dose (mmol/kg-bw/day) (TherapeuticCategory: antidiabetic): 0.0452

CCCCCCc1ccc(O)cc1O
maximum recommended daily dose (mmol/kg-bw/day) (TherapeuticCategory: antihelmintic, antiseptic): 0.0858

CO[C@@]1(NC(=O)CSCC#N)C(=O)N2C(C(=O)O)=C(CSc3nnnn3C)CS[C@@H]21
maximum recommended daily dose (mmol/kg-bw/day) [1]: 0.212

CN(C)CCOC(c1ccccc1)c1ccc(Br)cc1 (centres undefined)
maximum recommended daily dose (mmol/kg-bw/day) [6]: 0.00748

C=C1/C(=C\C=C2/CCC[C@]3(C)[C@@H]([C@H](C)CCCC(C)(C)O)CC[C@@H]23)C[C@@H](O)C[C@@H]1O
maximum recommended daily dose (mmol/kg-bw/day) (TherapeuticCategory: calcium regulator): 1.2e-07

CCOc1nc2cccc(C(=O)O)c2n1Cc1ccc(-c2ccccc2-c2nn[nH]n2)cc1
maximum recommended daily dose (mmol/kg-bw/day) [4]: 0.000606

O=c1[nH]cnc2c1ncn2[C@H]1CC[C@@H](CO)O1
maximum recommended daily dose (mmol/kg-bw/day) (TherapeuticCategory: antiviral): 0.0282

O=C1O[C@H]([C@@H](O)CO)C(O)=C1O
maximum recommended daily dose (mmol/kg-bw/day) (TherapeuticCategory: vitamin C deficiency): 0.568

Oc1c(I)cc(Cl)c2cccnc12
maximum recommended daily dose (mmol/kg-bw/day) (TherapeuticCategory: topical anti infective, antiamebic): 0.0818

CCn1cc(C(=O)O)c(=O)c2cc3c(cc21)OCO3
maximum recommended daily dose (mmol/kg-bw/day) [1]: 0.0957

CO/N=C(/C(=O)N[C@@H]1C(=O)N2C(C(=O)OC(C)OC(C)=O)=C(COC(N)=O)CS[C@H]12)c1ccco1 (some centres undefined)
maximum recommended daily dose (mmol/kg-bw/day) [1]: 0.0327

CC(=O)O[C@]1(C(C)=O)CC[C@H]2[C@@H]3C=C(Cl)C4=CC(=O)CC[C@]4(C)[C@H]3CC[C@@]21C
maximum recommended daily dose (mmol/kg-bw/day) (TherapeuticCategory: progestogen, antineoplastic): 8.22e-05

CNCCCC1c2ccccc2C=Cc2ccccc21
maximum recommended daily dose (mmol/kg-bw/day) (TherapeuticCategory: antidepressant): 0.0038

CC[C@H]1OC(=O)[C@H](C)[C@@H](O[C@H]2C[C@@](C)(OC)[C@@H](O)[C@H](C)O2)C(C)[C@@H](O[C@@H]2O[C@H](C)C[C@H](N(C)C)[C@H]2O)[C@](C)(OC)C[C@@H](C)C(=O)[C@H](C)[C@@H](O)[C@]1(C)O (some centres undefined)
maximum recommended daily dose (mmol/kg-bw/day) [1]: 0.0111

CCOc1ccc(NC(C)=O)cc1
maximum recommended daily dose (mmol/kg-bw/day) (TherapeuticCategory: anticonvulsant, analgesic, antipyretic): 0.279

CCOC(C)=O
maximum recommended daily dose (mmol/kg-bw/day) (TherapeuticCategory: none): 0.284
